Series [1] is described as follows: Internal dose of PFHxS from rat model Caverage,rat at NOAEL with uncertainty factors. Conditions: versus internal dose 412.7 ng/mL. Also on record: species or system human. The procedure: First, to obtain the internal dose of PFHxS, the UFA was applied to the rat model by finding the Caverage,rat resulting from repeated exposure to NOAEL.
As a result, BEPOD was calculated as 4127.4 ng/mL.

For series [2] the following is noted: cited from earlier work.
Series [3] can be described thus: PFHxS standard exposure calculation and risk assessment using human PBPK core model. To be noted: standard exposure 9.7 μg/kg/day. From the text: The final parameters were used to calculate the correlation between the mean blood concentration at steady state and the external dose during repeated exposure to PFHxS. Specifically, using a human PBPK model constructed using human physiological parameters and substance-intrinsic parameters, a dose range was simulated and set, and the correlations described above were derived using regression analysis.
Next, the interspecies uncertainty factor (UFA) was applied to calculate the steady-state Caverage,human in humans. Specifically, the PFHxS PODhuman in the human body was calculated by using the correlation equation between the average blood concentration (Caverage) and the external dose during repeated exposure to PFHxS from which Caverage,human was derived. Next, the intraspecies uncertainty factor (UFH) was applied to the PODhuman to finalize the PFHxS standard exposure in the human body.
The PFHxS reference standard dose for external dose to PFHxS was used to derive the margin of safety (MoS) of PFHxS for men and women. Specifically, the blood PFHxS concentrations of men in Siheung (2.29 ng/mL) and women in Daegu (1.75 ng/mL), which are highly exposed to PFHxS, were substituted into the above correlation equation between the average blood concentration (Caverage) and the external dose to calculate the external dose.

Where two headings read alike, the source gives them in different places.

Regarding `O=S(=O)(O)C(F)(F)C(F)(F)C(F)(F)C(F)(F)C(F)(F)C(F)(F)F` [PFHxS], the “actual blood levels in Koreans compared with calculated internal dose” value in series [1] is given as “in the safe zone”. Besides, the “blood PFHxS concentration” value is given as 2.19 ng/mL in series [2] (men in Daegu), 2.29 ng/mL in series [2] (men in Siheung), 1.75 ng/mL in series [2] (women in Daegu) and 1.35 ng/mL in series [2] (women in Siheung). In addition, the “margin of safety (MoS)” value in series [3] (men (Siheung, blood PFHxS 2.29 ng/mL)) is on record as 180.3; in series [3] (women (Daegu, blood PFHxS 1.75 ng/mL)), 235.9.

These data come from US20240006031A1, “PHYSIOLOGICALLY-BASED PHARM[…] MODEL” (CHA UNIVERSITY INDUSTRY-ACADEMIC COOPERATION FOUNDATION, priority 2020, published 2024).
